Measured values published in patent publication US20250040539A1, “COMPOSITION COMPRISING AN ANTIMICROBIAL AGENT AND A CARBOXAMIDE” (BASF SE, priority 2021, published 2025).

How the values were obtained:
Type in all cases: cell-based
[1] = test system: fungus Aspergillus brasiliensis DSM 1988; assay: Preservative activity in an enzyme (mannanase) solution of pH 6 with 2-phenoxyethanol (Example 1.4); conditions: for d0 [CFU/ml]: day 0 (inoculation); for d2 [CFU/ml]: day 2; for d7 [CFU/ml]: day 7; for d14 [CFU/ml]: day 14; for d15 [CFU/ml]: day 15 (after re-inoculation); for d22 [CFU/ml]: day 22; for d29 [CFU/ml]: day 29
Experimental: A enzyme solution of pH 6 containing the hydrolase mannanase of the following composition was used:
The samples were contaminated with the fungus Aspergillus brasiliensis DSM 1988.
The samples were inoculated with the fungus at day 0 and 15 to obtain 1-3×10E+05 CFU/ml inoculation in the test sample consisting of the above-defined enzyme solution and stored at 25° C. for 29 days. CFU was determined at days 0, 2, 7, 14, 15 (after re-inoculation), 22 and 29 (abbreviated d0, d2, d7, d14, d15, d22, d29).
Any CFU value at d2, d7, d14, d22 or d29 obtained with an enzyme solution sample of the invention containing 2-phenoxyethanol and amide (enzyme solution+0.7% PE+0.07% of amide) lower than the respective value of the comparative example (enzyme solution+0.7% by weight of 2-phenoxyethanol) indicates a better performance of the inventive combination of 2-phenoxyethanol with the amide.
The amide used was N,N-dimethyl-n-decanoyl amide (=n-decanoyl-N,N-dimethylamide).

[2] = test system: fungal mix: Aspergillus brasiliensis DSM 1988, Rhodotorula mucilaginosa DSM 13621, Yarrowia lipolytica DSM 8218; assay: Preservative activity in a manual dishwashing composition (MDW, pH 7.1) with 2.0% 2-phenoxyethanol against fungal mix (Example 1.3); conditions: for d7 [CFU/ml]: day 7; for d14 [CFU/ml]: day 14; for d21 [CFU/ml]: day 21
Experimental: (§1) A manual dish wash detergent (MDW) of pH 7.1 containing the following components was used:
(§2) The samples were contaminated with a fungal mix consisting of: • Aspergillus brasiliensis DSM 1988 • Rhodotorula mucilaginosa DSM 13621 • Yarrowia lipolytica DSM 8218
(§3) The samples were inoculated with the fungal mix at day 0 and 7 to obtain 1-3×10E+05 CFU/ml inoculation in the test sample consisting of the above-defined dish wash detergent MDW and stored at 25° C. for 21 days. CFU was determined before re-inoculation at day 7, and on days 14 and 21.
Any CFU value at d7, d14 or d21 obtained with a MDW sample of the invention containing 2-phenoxyethanol and amide (MDW+2.0% PE+1% of Amide) lower than the respective value of the “comparative 2” example (MDW+2.0% by weight of 2-phenoxyethanol) indicates a better performance of the inventive combination of 2-phenoxyethanol with the amide.

[3] = test system: fungal mix: Aspergillus brasiliensis DSM 1988, Rhodotorula mucilaginosa DSM 13621, Yarrowia lipolytica DSM 8218; assay: Preservative activity in a manual dishwashing composition (MDW, pH 7.1) with 1.0% 2-phenoxyethanol against fungal mix (Example 1.2); conditions: MDW + 1.0% PE, no amide (Comparative)
Experimental: as §1, §2, §3
Any CFU value at d7, d14 or d21 obtained with a MDW sample of the invention containing 2-phenoxyethanol and amide (MDW+1.0% PE+x % of Amide) lower than the respective value of the comparative example (MDW+1.0% by weight of 2-phenoxyethanol) indicates a better performance of the inventive combination of 2-phenoxyethanol with the amide.

[4] = test system: bacterial mix: Escherichia coli DSM 1576, Alcaligenes faecalis DSM 13644, Pseudomonas aeruginosa ATCC 15442, Staphylococcus aureus ATCC 6538, Burkholderia …; assay: Preservative activity in a manual dishwashing composition (MDW, pH 7.1) with 2.0% 2-phenoxyethanol against bacterial mix (Example 2.4); conditions: MDW + 2.0% PE, no amide (Comparative 2)
Experimental: as §1
The samples were contaminated with a bacterial mix consisting of: • Escherichia coli DSM 1576 • Alcaligenes faecalis DSM 13644 • Pseudomonas aeruginosa ATCC 15442 • Staphylococcus aureus ATCC 6538 • Burkholderia cepacia DSM 7288 • Pseudomonas putida DSM 12735
The samples were inoculated with the bacterial mix at day 0 and 7 to obtain 10E+06 to 10E+07 CFU/ml inoculation in the test sample and stored at 25° C. for 21 days. CFU was determined before re-inoculation at day 7 and on days 14 and 21.
Any CFU value at day 7 (d7), day 14 (d14) or day 21 (d21) obtained with a sample according to the invention containing 2-phenoxyethanol and amide (MDW+2.0% PE+x % Amide) lower than the respective value of the “comparative 2” example (MOW+2.0% by weight of 2-phenoxyethanol) indicates a better performance.

[5] = test system: fungal mix (including yeasts and molds): Aspergillus brasiliensis DSM 1988, Rhodotorula mucilaginosa DSM 13621, Yarrowia lipolytica DSM 8218; assay: Preservative activity of a basic composition (10% PG in water, pH 7) with 2-phenoxyethanol against fungal contamination (Example 1.1); conditions: 25° C.; for d21 [CFU/ml]: day 21
Experimental: An aqueous composition of pH 7 comprising 10% by weight of propyleneglycol (PG) as organic solvent, 0.36% by weight of 2-phenoxyethanol (PE) as antimicrobial and 0.04% by weight of the amide listed in the below table was tested for its preserving activity against fungal contamination (the percentages are weight percent and relate to the total weight of the composition). For this purpose, the samples were contaminated with a fungal mix (including yeasts and molds) consisting of: • Aspergillus brasiliensis DS M 1988 • Rhodotorula mucilaginosa DSM 13621 • Yarrowia lipolytica DS M 8218
To control the efficacy, following control compositions were tested: • “Reference”, consisting of only 10% by weight of propylene glycol in water • “Comparative 1” containing 10% by weight of propylene glycol and amide in the given concentration, but no 2-phenoxyethanol • […] in the given concentration, but no amide.
The samples were inoculated with the fungal mix at day 0, 7 and 14 to obtain a cell density in the range of 1-3×10E+05 CFU/ml (CFU=colony forming units) in the test samples (compositions listed in the below table) and stored at 25° C. for 21 days.
CFU was determined before re-inoculation at days 7 and 14, and on day 21.

[6] = test system: fungal mix: Aspergillus brasiliensis DSM 1988, Rhodotorula mucilaginosa DSM 13621, Yarrowia lipolytica DSM 8218; assay: Preservative activity in a hard surface cleaner composition (HSC, pH 7.0) with 2-phenoxyethanol against fungal mix (Example 1.5); conditions: HSC + 1.35% PE, no amide (Comparative 2)
Experimental: A manual hard surface cleaner (HSC) of pH 7.0 containing the following components was used:
as §2
The samples were inoculated with the fungal mix at day 0 and 7 to obtain 1-3×10E+05 CFU/ml inoculation in the test sample consisting of the above-defined hard surface cleaner HSC and stored at 25° C. for 21 days. CFU was determined before re-inoculation at day 7, and on days 14 and 21.

[7] = Enzyme solution + 0.7% PE, no amide (Comparative)
[8] = MDW + 2.0% PE, no amide (Comparative 2)
[9] = Enzyme solution + 0.7% PE + 0.07% amide
[10] = MDW + 1.0% amide, no PE (Comparative 1)

SMILES: OCCOc1ccccc1 [PE, 2-phenoxyethanol, reference compound]
- d0 [CFU/ml] [1, 7]: 110,000 CFU/ml
- d2 [CFU/ml] [1, 7]: 92,000 CFU/ml
- d7 [CFU/ml] [1, 7]: 29,000 CFU/ml
- d14 [CFU/ml] [1, 7]: 21,000 CFU/ml
- d15 [CFU/ml] [1, 7]: 300,000 CFU/ml
- d22 [CFU/ml] [1, 7]: 67,000 CFU/ml
- d29 [CFU/ml] [1, 7]: 100,000 CFU/ml
- d7 [CFU/ml] [2, 8]: 27,500 CFU/ml
- d14 [CFU/ml] [2, 8]: 22,000 CFU/ml
- d21 [CFU/ml] [2, 8]: 18,000 CFU/ml
- d7 [CFU/ml] ([3]; day 7): 38,000 CFU/ml
- d14 [CFU/ml] ([3]; day 14): 27,000 CFU/ml
- d21 [CFU/ml] ([3]; day 21): 3,700 CFU/ml
- d7 [CFU/ml] ([4]; day 7): 330 CFU/ml
- d14 [CFU/ml] ([4]; day 14): 2,800 CFU/ml
- d21 [CFU/ml] ([4]; day 21): 38,500 CFU/ml
- d7 [CFU/ml] ([5]; 10% PG + 0.4% PE, no amide (Comparative 2), fungal mix inoculated at day 0, 7 and 14, day 7): 10,000 CFU/ml
- d14 [CFU/ml] ([5]; 10% PG + 0.4% PE, no amide (Comparative 2), fungal mix inoculated at day 0, 7 and 14, day 14): 16,000 CFU/ml
- d21 [CFU/ml] ([5]; 10% PG + 0.4% PE, no amide (Comparative 2), fungal mix inoculated at day 0, 7 and 14): 38,500 CFU/ml
- d7 [CFU/ml] ([6]; day 7): 37,000 CFU/ml
- d14 [CFU/ml] ([6]; day 14): 36,000 CFU/ml
- d21 [CFU/ml] ([6]; day 21): 3200 CFU/ml

SMILES: CCCCCCCCCC(=O)N(C)C [n-Decanoyl-N,N-dimethylamide]
- d0 [CFU/ml] ([1]; Enzyme solution + 0.7% PE + 0.07% amide (N,N-dimethyl-n-decanoyl amide)): 110,000 CFU/ml
- d2 [CFU/ml] [1, 9]: 80,000 CFU/ml
- d7 [CFU/ml] [1, 9]: 240 CFU/ml
- d14 [CFU/ml] [1, 9]: 30 CFU/ml
- d15 [CFU/ml] [1, 9]: 300,000 CFU/ml
- d22 [CFU/ml] [1, 9]: 14,000 CFU/ml
- d29 [CFU/ml] [1, 9]: 70 CFU/ml
- d7 [CFU/ml] [2, 10]: 50,500 CFU/ml
- d14 [CFU/ml] [2, 10]: 97,500 CFU/ml
- d21 [CFU/ml] [2, 10]: 83,000 CFU/ml
- d7 [CFU/ml] ([2]; MDW + 2.0% PE + 1.0% amide): 19,000 CFU/ml
- d14 [CFU/ml] ([2]; MDW + 2.0% PE + 1.0% amide): 10,000 CFU/ml
- d21 [CFU/ml] ([2]; MDW + 2.0% PE + 1.0% amide): 5,000 CFU/ml
- d7 [CFU/ml] ([5]; 10% PG + 0.36% PE + 0.04% Amide in water, pH 7, fungal mix inoculated at day 0, 7 and 14 (1-3x10E+05 CFU/ml), day 7 before re-inoculation): <10 CFU/ml
- d14 [CFU/ml] ([5]; 10% PG + 0.36% PE + 0.04% Amide in water, pH 7, fungal mix inoculated at day 0, 7 and 14, day 14 before re-inoculation): <10 CFU/ml
- d21 [CFU/ml] ([5]; 10% PG + 0.36% PE + 0.04% Amide in water, pH 7, fungal mix inoculated at day 0, 7 and 14): <10 CFU/ml
